# Reference: patent US20140309295A1, “ANTIEPILEPTIC, HYPOCHOLESTEROLEMIC AND NEUROPROTECTIVE COMPOUND” (NEURON BIOPHARMA, S.A., priority 2009, published 2014)
# Legend:
# [1] = tested on: FVB/NHan mice inoculated with kainate (KA); assay: Integral memory test (temporal and spatial memory) in mice after kainate; format: in vivo
# Method: (§1) All the animals included for the experimental process were 12-week old males of the FVB/NHan strain. The experiments were conducted strictly following the Guidance on the Operation of Animals (Scientific Procedures, Act. 1986). The animals had their respective quarantine period and were treated with maximum precaution to minimize possible contaminations for inoculations and handling.
# Twenty-eight animals were used in this assay and the treatments were all conducted by intraperitoneal (i.p.) route with a volume of 100 μl, according to the following regimens: • i) PBS+PBS+PBS regimen: 4 animals were initially treated with PBS with a daily dose for 2 days, on the second day the animals were inoculated with a new dose of PBS and for the following 3 days with a daily dose of PBS. • ii) PBS+KA+PBS regimen: 6 animals were initially treated with PBS with a daily dose for 2 days, on the second day the animals were inoculated with a dose of kainate at 25 mg/Kg and for the following 3 days with a daily dose of PBS. • iii) PBS+KA+NST0037 regimen: 7 animals were initially treated with PBS with a daily dose for 2 days, on the second day the animals were inoculated with a dose of kainate at 25 mg/Kg and for the following 3 days with a daily dose of NST0037 at 50 mg/kg. • iv) NST0037+KA+NST0037 regimen: 6 animals were initially treated with a daily dose for 2 days with NST0037 at 50 mg/kg, on the second day the animals were inoculated with a dose of kainate at 25 mg/Kg and for the following 3 days with a daily dose of NST0037 at 50 mg/kg. • v) NST0037+PBS+NST0037 regimen: 5 animals were initially treated with a daily dose for 2 days with NST0037 at 50 mg/kg, on the second day the animals were inoculated with a dose of PBS and for the following 3 days with a daily dose of NST0037 at 50 mg/kg.
# Three days after inoculation of KA, an object recognition test called integral memory test was performed on the animals.
# [2] = tested on: FVB/NHan mice inoculated with kainate (KA); assay: Antiepileptic effect against kainate in mice (Racine scale); format: in vivo
# Method: as §1
# The animals were intraperitoneally inoculated with 25 mg/kg of kainate (KA) dissolved in PBS. Thirteen animals were pre-treated 24 and 0.5 hours before inoculation with KA by means of intraperitoneal injection with PBS (PBS+KA administration regimen) and 6 were pre-treated 24 and 0.5 hours before inoculation with KA by means of intraperitoneal injection with NST0037 at a dose of 50 mg/kg (NST0037+KA administration regimen). After the inoculation, the animals were individually housed in trays to monitor them. The maximum epilepsy level of the animals was recorded during the observation according to the Racine scale every ten minutes and for at least 120 minutes post-inoculation (m.p.i.).
# seladin-1/DHCR24 gene = seladin-1/DHCR24 gene expression in SK-N-MC cells (real-time quantitative RT-PCR); format: cell-based, human; conditions: 1, 4, 10 or 40 μM, 24 hours
# Method: The assay was performed on human neuroblastoma SK-N-MC cells in culture from the American Type Culture Collection (ATCC), in all cases strict rules of sterility were followed and the manipulation was performed in class II biological safety cabinets following European standard EN 12469. The cells were maintained in the following culture medium: Minimum Essential Medium Eagle (MEM) supplemented with 1 mM sodium pyruvate, 2 mM L-glutamine, 0.1 mM non-essential amino acids, 0.05 mg/ml gentamicin and 10% fetal bovine serum.
# The expression of the seladin-1/DHCR24 gene (NCBI Reference Sequence: NM_014762.3) was analyzed by means of real-time quantitative RT-PCR in comparison with memantine (a drug normally used to treat Alzheimer's disease). […] The total RNA was extracted by means of the High Pure RNA Isolation kit (Roche) and the amount and quality of the RNA were analyzed by means of spectrophotometry (Infinite 200 with NanoQuant, Tecan) and viewing of the 18S and 28S bands by means of electrophoresis. The RT-PCR was performed by means of two steps, first, the mRNA was changed to cDNA using the RNA to cDNA kit (Applied Biosystem) and the gene expression was subsequently analyzed by means of TaqMan probes using the validated probes Hs00207388_m1 for seladin-1/DHCR24 and Hs99999901_s1 for 18S (used to normalize the results) in the 7500 Fast Real-Time PCR System equipment (Applied Biosystem). […]
# Zucker rats = assay: Hypolipidemic effect in genetically obese Zucker rats, oral 7 days; format: in vivo; conditions: 30 mg/kg oral
# Method: as §1, with “11 week-old male Zucker rats.” for “12-week old males of the FVB/NHan strain.”
# After a conditioning to the diet, 30 mg/kg of NST0021 or NST0037 were orally administered to the […] at the same time (15.00 to 18.00 h) for 7 consecutive days, using in both cases 0.5% carboxy methylcellulose in water as a vehicle. The control group received this same vehicle. Before starting the treatments and at 7 days therefrom, blood was extracted by lingual puncture under anesthesia after fasting for 16 hours. The plasma was obtained from said blood, in which the total cholesterol, HDL-c, LDL-c, VLDL-c, and triglyceride (TG) levels were evaluated by enzymatic and spectrophotometric techniques. In order to check if the effect at the lipid level involved an alteration of the oxidative stress, the redox state in the plasmas obtained was furthermore evaluated by means of the TEAC (Trolox Antioxidant Capacity Assay) technique. This technique determines the antioxidant capacity in vitro, giving an idea of the redox state of the sample analyzed by means of the absorbance capacity by electron transfer. The different components of the reaction, myoglobin, ABTS (2,2-azino-bis-(3-ethylbenzthiazoline-sulfonic acid) and hydrogen peroxide were added to the plasmas diluted 1/10 in PBS (10 μL) in a 96-well plate. After 3 minutes of incubation, the absorbance was measured at 405 nm (with a reference of 600 nm).
smiles,measurement,setting,value
"CCC(CC)C(=O)O[C@H]1C[C@@H](C)C=C2C=C[C@H](C)[C@H](CC[C@@H]3C[C@@H](O)CC(=O)O3)[C@H]21 [NST0037, (1S,2S,6R,8S,8aR)-1,2,6,7,8,8a-hexahydro-3,7-dimethyl-8-[2-[(2R,4R)-tetrahydro-4-hydroxy-6-oxo-2H-pyran-2-yl]ethyl]-1-naphthalenyl-2-ethyl-butyrate]",spatial memory,"[1]; NST0037+KA+NST0037 regimen, 50 mg/kg i.p.",spatial memory is intact
same,temporal memory,"[1]; NST0037+KA+NST0037 regimen, 50 mg/kg i.p., 3 days after KA",prevented the reduction in the temporal memory capacity
same,spatial memory,[1]; NST0037+PBS+NST0037 regimen,spatial memory is intact
same,temporal memory,"[1]; NST0037+PBS+NST0037 regimen, vs PBS+PBS+PBS",improvement of the temporal memory
same,spatial memory,"[1]; PBS+KA+NST0037 regimen, 50 mg/kg i.p.",improvement of this type of memory
same,temporal memory,"[1]; PBS+KA+NST0037 regimen, 50 mg/kg i.p., 3 days after KA",improvement of the state of the temporal memory
same,epileptogenic symptoms from 100 m.p.i.,[2]; NST0037+KA regimen,caused the disappearance of the epileptogenic symptoms
same,epilepsy level on the Racine scale,"[2]; NST0037+KA, 120 minutes observation",< 3
same,seladin-1/DHCR24 gene expression,seladin-1/DHCR24 gene,increase of seladin-1/DHCR24 gene expression
same,HDL,Zucker rats,increase of HDL
same,"oxidative stress (redox state in plasma, TEAC)",Zucker rats,drastic reduction
same,plasma triglyceride levels,Zucker rats,reduced the plasma triglyceride levels
same,plasma LDL levels,Zucker rats; male Zucker rats,equally reducing the plasma LDL levels
